# Reference: publication PMC8000760, “Potential Effect of Pseudevernia furfuracea (L.) Zopf Extract and Metabolite Physodic Acid on Tumour Microenvironment Modulation in MCF-10A Cells” (Biomolecules, 2021)
# Tests used:
# Assay type in all cases: cell-based, human
# MCF-10A cells = assay: Flow cytometry cell cycle phase distribution
# Protocol: The MCF-10A and BJ-5ta cells were seeded and cultivated for 24 h in a complete medium. One day after seeding, 30 ng/mL of TGF-β was added and cultivated for 7 days (d). TGF-β was added to induce epithelial–mesenchymal transition in tested cell lines. Lichen extract P. furfuracea (L.) Zopf and its metabolite physodic acid were added at time 0 h and then incubated for 24, 48 and 72 h for various analyses, as described in Figure 1.
# The MCF-10A cells (1 × 10^4/well) were seeded in Petri dishes and stimulated with […] TGF-β for 7 days. […] After detaching, using Trypsin/EDTA, cells were harvested and pelleted by centrifugation at 1200 rpm for 5 min. Pellet was re-suspended in PBS and divided for a particular analysis. Cells were stained prior to analyses with E-Cadherin Mouse mAb (Alexa Fluor 488 conjugate) or N-cadherin Rabbit mAb (Alexa Fluor 647 conjugate) (Cell Signalling) for 15 min at RT in the dark. For the cell cycle analyses, cells were re-suspended in staining solution (final concentration 0.1% Triton X-100, 0.5 mg/mL ribonuclease A and 0.025 mg/mL propidium iodide (PI)), and incubated in the dark at RT for 30 min. All samples were analysed using a FACS Calibur flow cytometer (Becton Dickinson, San Jose, CA, USA). The IgG isotype control checking was performed for every used antibody.
# HUVECs [1] = assay: BrdU cell proliferation assay; details: 48 h
# Protocol: (§1) The MCF-10A (5 × 10^3/well), BJ-5ta (5 × 10^3/well) and HUVEC cells (4 × 10^3/well) were plated in a 96-well plate in 80 μL suitable medium. HUVECs were seeded onto a gelatine-coated plate. After 24 h, cells were treated with the range of concentration 10–100 μg/mL for 72 h (MCF-10A, BJ-5ta), or in the presence or absence of 25 ng/mL of VEGF for 48 h (HUVECs). After 48 h (MCF-10A, BJ-5ta) or 24 h (HUVECs), BrdU labelling solution was added into cells and incubated for another 24 h at 37 °C, followed by fixation and incubation with anti-BrdU peroxidase conjugate solution for an additional 1.5 h at room temperature (RT). Then, cells were washed with washing buffer PBS and incubated with substrate solution TMB for 5 to 30 min according to colour intensity. Finally, we added stop solution (1 M H2SO4) and incorporated BrdU was detected with an automated CytationTM 3 Cell Imaging Multi-Mode Reader at 450 nm (reference wavelength: 690 nm). Three independent experiments were performed at different intervals.
# MCF-10A [2] = assay: BrdU cell proliferation assay; details: 72 h
# Protocol: as §1
# HUVECs [3] = assay: MTS cell viability assay; details: 48 h
# Protocol: (§2) Briefly, MCF-10A and BJ-5ta were seeded in 96-well culture plates, and after 24 h incubation, treated with various ranges of concentrations of tested compounds (10–100 μg/mL) for 72 h. At the same time, HUVECs were seeded in a gelatine-coated 96-well plate and treated with the same aliquots of indicated compounds in the presence or absence of VEGF (Vascular endothelial growth factor) (25 ng/mL) for 48 h. Cell viability was evaluated by measuring the absorbance at 490 nm using the automated CytationTM 3 Cell Imaging Multi-Mode Reader (Biotek, Winooski, VT, USA). Three independent experiments were performed at different intervals.
# MCF-10A [4] = assay: MTS cell viability assay; details: 72 h
# Protocol: as §2
# [5] = 24 h, IC10, in the presence of 30 ng/mL TGF-β
# [6] = 24 h, treatment alone (IC10 of PSE/Phy, or TGF-β 30 ng/mL)
# [7] = 48 h, IC10, in the presence of 30 ng/mL TGF-β
# [8] = 48 h, treatment alone (IC10 of PSE/Phy, or TGF-β 30 ng/mL)
# [9] = 72 h, IC10, in the presence of 30 ng/mL TGF-β
# [10] = 72 h, treatment alone (IC10 of PSE/Phy, or TGF-β 30 ng/mL)
structure (smiles),measurement,setting,value
"CCCCCC(=O)Cc1cc(O)cc2c1C(=O)Oc1cc(O)c(C(=O)O)c(CCCCC)c1O2 [Phy, physodic acid]",G1 cell cycle phase distribution,MCF-10A cells; [5],73.45 ± 0.69
same,G2/M cell cycle phase distribution,MCF-10A cells; [5],13.25 ± 2.08
same,S cell cycle phase distribution,MCF-10A cells; [5],12.20 ± 2.69
same,Sub G0 cell cycle phase distribution,MCF-10A cells; [5],1.10 ± 0.07
same,G1 cell cycle phase distribution,MCF-10A cells; [6],73.25 ± 0.37
same,G2/M cell cycle phase distribution,MCF-10A cells; [6],13.85 ± 0.61
same,S cell cycle phase distribution,MCF-10A cells; [6],12.05 ± 0.86
same,Sub G0 cell cycle phase distribution,MCF-10A cells; [6],0.86 ± 0.12
same,G1 cell cycle phase distribution,MCF-10A cells; [7],89.05 ± 1.18^Δ
same,G2/M cell cycle phase distribution,MCF-10A cells; [7],5.78 ± 1.16
same,S cell cycle phase distribution,MCF-10A cells; [7],3.36 ± 0.27
same,Sub G0 cell cycle phase distribution,MCF-10A cells; [7],1.82 ± 0.24
same,G1 cell cycle phase distribution,MCF-10A cells; [8],88.15 ± 0.53
same,G2/M cell cycle phase distribution,MCF-10A cells; [8],5.06 ± 1.00
same,S cell cycle phase distribution,MCF-10A cells; [8],4.23 ± 0.48
same,Sub G0 cell cycle phase distribution,MCF-10A cells; [8],2.54 ± 0.04
same,G1 cell cycle phase distribution,MCF-10A cells; [9],89.75 ± 0.86^Δ
same,G2/M cell cycle phase distribution,MCF-10A cells; [9],4.34 ± 1.27^Δ
same,S cell cycle phase distribution,MCF-10A cells; [9],3.14 ± 0.52
same,Sub G0 cell cycle phase distribution,MCF-10A cells; [9],2.77 ± 0.94
same,G1 cell cycle phase distribution,MCF-10A cells; [10],88.50 ± 1.14
same,G2/M cell cycle phase distribution,MCF-10A cells; [10],3.99 ± 0.80
same,S cell cycle phase distribution,MCF-10A cells; [10],5.45 ± 2.26
same,Sub G0 cell cycle phase distribution,MCF-10A cells; [10],2.06 ± 0.35
same,cell cycle phase distribution versus control or TGF-β alone,"MCF-10A cells; IC10, absence or presence of TGF-β 30 ng/mL, 24, 48 and 72 h",no significant differences
same,IC10,HUVECs [1],89.53 ± 3.21 µM
same,IC50,"HUVECs [1]; Homo sapiens, HUVEC",124 ± 5.33 µM
same,IC10,MCF-10A [2],63.63 ± 3.40 µM
same,IC50,MCF-10A [2]; Homo sapiens,155 ± 7.4 µM
same,VEGF-induced cell growth,HUVECs [3]; HUVECs with VEGF 25 ng/mL,significantly inhibited
same,cell growth of non-stimulated HUVECs,HUVECs [3]; HUVECs without VEGF,no significant differences
same,IC10,HUVECs [3]; HUVECs,60.62 ± 3.30 µM
same,IC50,"HUVECs [3]; Homo sapiens, HUVEC, HUVECs",92.8 ± 3.62 µM
same,IC10,MCF-10A [4],59.25 ± 1.36 µM
same,IC50,MCF-10A [4]; Homo sapiens,79.9 ± 0.93 µM
